Source: the Kinase Knowledgebase extract (Sharma et al. 2016)

The compounds below were run against CDK2 (UniProt P24941) (assay: Enzyme Assay).
`FC(F)(F)c1cccc(Nc2nccc(-c3cnn4ncccc34)n2)c1` gave an IC50 of less than 0.1 µM. For `c1cc(Nc2nccc(-c3cnn4ncccc34)n2)cc(-c2cnco2)c1`, the IC50 was less than 0.1 µM. `COc1ccc2c(-c3ccnc(NC4CC4)n3)cnn2n1` was tested, and the IC50 was less than 1 µM. Compound `CN1CCN(c2ccc(Nc3nccc(-c4cnn5ncccc45)n3)cc2Cl)CC1` has an IC50 of less than 0.1 µM. Compound `O=[N+]([O-])c1cccc(Nc2nccc(-c3cnn4ncccc34)n2)c1` has an IC50 of less than 0.1 µM. `Clc1ccc(Nc2nccc(-c3cnn4ncccc34)n2)cc1` was tested, and the IC50 was less than 0.1 µM. `CN(C)c1ccc(Nc2nccc(-c3cnn4nc(N5CCOCC5)ccc34)n2)cc1` gave an IC50 of less than 1 µM. For `Cc1cc(Nc2nccc(-c3cnn4ncccc34)n2)ccc1N1CCN(C)CC1`, the IC50 was less than 0.1 µM. In the case of `O=C1CCCN1CCCNc1nccc(-c2cnn3ncccc23)n1`, the IC50 is reported as less than 0.1 µM. Work on `Clc1ccccc1-c1ccc2c(-c3ccnc(NC4CC4)n3)cnn2n1` yielded an IC50 of less than 1 µM. `NS(=O)(=O)c1ccc(Nc2nccc(-c3cnn4ncccc34)n2)cc1` showed an IC50 of less than 0.1 µM. `N#Cc1cccc(Nc2nccc(-c3cnn4ncccc34)n2)c1` gave an IC50 of less than 0.1 µM.
